Data from patent publication US20100129434A1, “COMPOSITIONS AND METHODS FOR THE TREATMENT OF MUCORMYCOSIS AND OTHER FUNGAL DISEASES” (priority 2006, published 2010).

Assay: Deferasirox toxicity studies in neutropenic mice
Type: in vivo
Settings: uninfected neutropenic mice
Protocol: Toxicity of deferasirox in neutropenic mice was evaluated. Mice were rendered neutropenic as above and treated with deferasirox at 10 mg/kg twice every day or every other day for 7 days. Mice from three different groups (i.e. placebo, deferasirox daily treatment, and deferasirox every other day treatment) were sacrificed on day 3 or 8 and blood was collected and sent for Charles River Laboratories for evaluation. Additionally, bone marrow smears were prepared from femurs, and tissues were collected, preserved in zinc-buffered formalin, embedded in paraffin, sectioned at 5 μm, and stained with hematoxylin and eosin. The resulting slides were examined by a board-certified veterinary pathologist at Charles River Laboratories.
Because deferasirox dosing every other day was optimal in the neutropenic model, we sought to identify any potential toxicity caused by daily dosing of deferasirox in neutropenic mice. Mice were made neutropenic with cyclophosphamide as above, but were not infected. The mice were treated with deferasirox 10 mg/kg twice daily for seven days, 10 mg/kg twice every other day for 4 doses, or placebo. Terminal bleeds were performed on day 3 or day 8 to measure complete blood count, serum chemistries, and liver function tests. […]

Structure (SMILES): O=C(O)c1ccc(-n2nc(-c3ccccc3O)nc2-c2ccccc2O)cc1 [Deferasirox, 4-[3,5-Bis(2-hydroxyphenyl)-1H-1,2,4-triazol-1-yl]-benzoic acid]
- white cell, neutrophil, platelet counts, hemoglobin, serum chemistries, liver function tests versus placebo (10 mg/kg twice daily 7 days or twice every other day 4 doses, day 3 or 8): No differences
- organ toxicity by histopathology (10 mg/kg twice daily or twice every other day): no organ-specific toxicity attributable to deferasirox
